# Reference: patent US7777047B2, “Indole compound” (Takeda Pharmaceutical Company Limited, priority 2006, dated 2010)
row,SMILES,melting point
1,"CN(c1cccc2cc(C3=NCC(CCO)S3)[nH]c12)S(=O)(=O)c1cccs1 (centres unmarked) [Example 285, N-{2-[5-(2-hydroxyethyl)-4,5-dihydro-1,3-thiazol-2-yl]-1H-indol-7-yl}-N-methylthiophene-2-sulfonamide]",174 to 175 °C
2,"CN1CCN(C(=O)CC2CN=C(c3cc4cccc(N(C)S(=O)(=O)c5cccs5)c4[nH]3)S2)CC1 (centres unmarked) [Example 286, N-methyl-N-(2-{5-[2-(4-methylpiperazin-1-yl)-2-oxoethyl]-4,5-dihydro-1,3-thiazol-2-yl}-1H-indol-7-yl)thiophene-2-sulfonamide]",151 to 153 °C
3,"CN(c1cccc2cc(C3=NCC(CC(N)=O)S3)[nH]c12)S(=O)(=O)c1cccs1 (centres unmarked) [Example 287, 2-(2-{7-[methyl(2-thienylsulfonyl)amino]-1H-indol-2-yl}-4,5-dihydro-1,3-thiazol-5-yl)acetamide]",193 to 194 °C
4,"CN(c1cccc2cc(C3=NCC(CCN4C(=O)CCC4=O)S3)[nH]c12)S(=O)(=O)c1cccs1 (centres unmarked) [Example 288, N-(2-{5-[2-(2,5-dioxopyrrolidin-1-yl)ethyl]-4,5-dihydro-1,3-thiazol-2-yl}-1H-indol-7-yl)-N-methylthiophene-2-sulfonamide]",189 to 191 °C
5,"CCOC(=O)CC1CN=C(c2cc3c(C)ccc(N(C)S(=O)(=O)c4cccs4)c3[nH]2)S1 (centres unmarked) [Example 290, ethyl (2-{4-methyl-7-[methyl(2-thienylsulfonyl)amino]-1H-indol-2-yl}-4,5-dihydro-1,3-thiazol-5-yl)acetate]",109 to 110 °C
6,"Cc1ccc(N(C)S(=O)(=O)c2cccs2)c2[nH]c(C3=NCC(CCO)S3)cc12 (centres unmarked) [Example 291, N-{2-[5-(2-hydroxyethyl)-4,5-dihydro-1,3-thiazol-2-yl]-4-methyl-1H-indol-7-yl}-N-methylthiophene-2-sulfonamide]",168 to 169 °C
7,"Cc1ccc(N(C)S(=O)(=O)c2cccs2)c2[nH]c(C3=NCC(CC(=O)O)S3)cc12 (centres unmarked) [Example 292, (2-{4-methyl-7-[methyl(2-thienylsulfonyl)amino]-1H-indol-2-yl}-4,5-dihydro-1,3-thiazol-5-yl)acetic acid]",269 to 270 °C
8,"CN(C)C(=O)CC1CN=C(c2cc3cccc(N(C)S(=O)(=O)c4cccs4)c3[nH]2)S1 (centres unmarked) [Example 294, N,N-dimethyl-2-(2-{7-[methyl(2-thienylsulfonyl)amino]-1H-indol-2-yl}-4,5-dihydro-1,3-thiazol-5-yl)acetamide]",153 to 154 °C
9,"CON(C)C(=O)CC1CN=C(c2cc3cccc(N(C)S(=O)(=O)c4cccs4)c3[nH]2)S1 (centres unmarked) [Example 299, N-methoxy-N-methyl-2-(2-{7-[methyl(2-thienylsulfonyl)amino]-1H-indol-2-yl}-4,5-dihydro-1,3-thiazol-5-yl)acetamide]",153 to 154 °C
10,"CC(=O)CC1CN=C(c2cc3cccc(N(C)S(=O)(=O)c4cccs4)c3[nH]2)S1 (centres unmarked) [Example 300, N-methyl-N-{2-[5-(2-oxopropyl)-4,5-dihydro-1,3-thiazol-2-yl]-1H-indol-7-yl}thiophene-2-sulfonamide]",123 to 124 °C
11,"C=CC(=O)CC1CN=C(c2cc3cccc(N(C)S(=O)(=O)c4cccs4)c3[nH]2)S1 (centres unmarked) [Example 301, N-methyl-N-{2-[5-(2-oxobut-3-en-1-yl)-4,5-dihydro-1,3-thiazol-2-yl]-1H-indol-7-yl}thiophene-2-sulfonamide]",157 to 158 °C
12,"CN(c1cccc2cc(C3=NCC(CN4CCSCC4)S3)[nH]c12)S(=O)(=O)c1ccccn1 (centres unmarked) [Example 303, N-methyl-N-{2-[5-(thiomorpholinomethyl)-4,5-dihydro-1,3-thiazol-2-yl]-1H-indol-7-yl}pyridine-2-sulfonamide]",142 to 144 °C
13,"COc1ccccc1S(=O)(=O)N(C)c1cccc2cc(C3=NCC(CCO)S3)[nH]c12 (centres unmarked) [Example 306, N-{2-[5-(2-hydroxyethyl)-4,5-dihydro-1,3-thiazol-2-yl]-1H-indol-7-yl}-2-methoxy-N-methylbenzenesulfonamide]",154 to 155 °C
14,"COc1ccccc1S(=O)(=O)N(C)c1cccc2cc(C3=NCC(CC(=O)O)S3)[nH]c12 (centres unmarked) [Example 307, (2-{7-[[(2-methoxyphenyl)sulfonyl](methyl)amino]-1H-indol-2-yl}-4,5-dihydro-1,3-thiazol-5-yl)acetic acid]",197 to 198 °C
15,"COc1ccccc1S(=O)(=O)N(C)c1cccc2cc(C3=NCC(CC(N)=O)S3)[nH]c12 (centres unmarked) [Example 308, 2-(2-{7-[[(2-methoxyphenyl)sulfonyl](methyl)amino]-1H-indol-2-yl}-4,5-dihydro-1,3-thiazol-5-yl)acetamide]",227 to 228 °C
16,"COc1ccccc1S(=O)(=O)N(C)c1cccc2cc(C3=NCC(CC(=O)Nc4nnc[nH]4)S3)[nH]c12 (centres unmarked) [Example 310, 2-(2-{7-[[(2-methoxyphenyl)sulfonyl](methyl)amino]-1H-indol-2-yl}-4,5-dihydro-1,3-thiazol-5-yl)-N-4H-1,2,4-triazol-3-ylacetamide]",208 to 209 °C
17,"CN(c1cccc2cc(C3=NCC(CC(=O)O)S3)[nH]c12)S(=O)(=O)c1ccccc1C(F)(F)F (centres unmarked) [Example 314, {2-[7-(methyl{[2-(trifluoromethyl)phenyl]sulfonyl}amino)-1H-indol-2-yl]-4,5-dihydro-1,3-thiazol-5-yl}acetic acid]",170 to 172 °C
18,"CN(c1cccc2cc(C3=NCC(CCO)S3)[nH]c12)S(=O)(=O)c1ccccc1C(F)(F)F (centres unmarked) [Example 315, N-{2-[5-(2-hydroxyethyl)-4,5-dihydro-1,3-thiazol-2-yl]-1H-indol-7-yl}-N-methyl-2-(trifluoromethyl)benzenesulfonamide]",153 to 154 °C
19,"CN(c1cccc2cc(C3=NCC(CN4CC[S+]([O-])CC4)S3)[nH]c12)S(=O)(=O)c1nccn1C (centres unmarked) [Example 320, N,1-dimethyl-N-(2-{5-[(1-oxidothiomorpholino)methyl]-4,5-dihydro-1,3-thiazol-2-yl}-1H-indol-7-yl)-1H-imidazole-2-sulfonamide]",161 to 162 °C
20,"CN(c1cc(OCCCS(C)(=O)=O)cc2cc(C3=NCC(CN4CCOCC4)S3)[nH]c12)S(=O)(=O)c1ccccn1 (centres unmarked) [Example 321, N-methyl-N-{5-[3-(methylsulfonyl)propoxy]-2-[5-(morpholinomethyl)-4,5-dihydro-1,3-thiazol-2-yl]-1H-indol-7-yl}pyridine-2-sulfonamide]",168 to 169 °C

# Second part, the compound after the results:
row,melting point,SMILES
1,190 to 191 °C,"Cc1ccc(N(C)S(=O)(=O)c2cccs2)c2[nH]c(-c3ncc(CN4CCC(O)C4)s3)cc12 (centres unmarked) [Example 251, N-(2-{5-[(3-hydroxypyrrolidin-1-yl)methyl]-1,3-thiazol-2-yl}-4-methyl-1H-indol-7-yl)-N-methylthiophene-2-sulfonamide]"
2,101 to 102 °C,"CCOC(=O)CC1CN=C(c2cc3cccc(N(C)S(=O)(=O)c4cccs4)c3[nH]2)S1 (centres unmarked) [Example 283, ethyl (2-{7-[methyl(2-thienylsulfonyl)amino]-1H-indol-2-yl}-4,5-dihydro-1,3-thiazol-5-yl)acetate]"
3,232 to 234 °C,"CN(c1cccc2cc(C3=NCC(CC(=O)O)S3)[nH]c12)S(=O)(=O)c1cccs1 (centres unmarked) [Example 284, (2-{7-[methyl(2-thienylsulfonyl)amino]-1H-indol-2-yl}-4,5-dihydro-1,3-thiazol-5-yl)acetic acid]"
4,120 to 121 °C,"Cc1ccc(N(C)S(=O)(=O)c2cccs2)c2[nH]c(C3=NCC(CC(N)=O)S3)cc12 (centres unmarked) [Example 293, 2-(2-{4-methyl-7-[methyl(2-thienylsulfonyl)amino]-1H-indol-2-yl}-4,5-dihydro-1,3-thiazol-5-yl)acetamide]"
5,156 to 158 °C,"O=S(=O)(Nc1cccc2cc(C3=NCC(CCO)S3)[nH]c12)c1cccs1 (centres unmarked) [Example 295, N-{2-[5-(2-hydroxyethyl)-4,5-dihydro-1,3-thiazol-2-yl]-1H-indol-7-yl}thiophene-2-sulfonamide]"
6,> 240 °C (dec.),"O=C(O)CC1CN=C(c2cc3cccc(NS(=O)(=O)c4cccs4)c3[nH]2)S1 (centres unmarked) [Example 296, (2-{7-[(2-thienylsulfonyl)amino]-1H-indol-2-yl}-4,5-dihydro-1,3-thiazol-5-yl)acetic acid]"
7,130 to 131 °C,"NC(=O)CC1CN=C(c2cc3cccc(NS(=O)(=O)c4cccs4)c3[nH]2)S1 (centres unmarked) [Example 297, 2-(2-{7-[(2-thienylsulfonyl)amino]-1H-indol-2-yl}-4,5-dihydro-1,3-thiazol-5-yl)acetamide]"
8,149 to 150 °C,"CN1CCC(CC2CN=C(c3cc4cccc(N(C)S(=O)(=O)c5cccs5)c4[nH]3)S2)=N1 (centres unmarked) [Example 302, N-methyl-N-(2-{5-[(1-methyl-4,5-dihydro-1H-pyrazol-3-yl)methyl]-4,5-dihydro-1,3-thiazol-2-yl}-1H-indol-7-yl)thiophene-2-sulfonamide]"
9,193 to 194 °C,"CN(c1cccc2cc(C3=NCC(CN4CC[S+]([O-])CC4)S3)[nH]c12)S(=O)(=O)c1ccccn1 (centres unmarked) [Example 304, N-methyl-N-(2-{5-[(1-oxidothiomorpholino)methyl]-4,5-dihydro-1,3-thiazol-2-yl}-1H-indol-7-yl)pyridine-2-sulfonamide]"
10,166 to 167 °C,"COc1ccccc1S(=O)(=O)N(C)c1cccc2cc(C3=NCC(CC(=O)N4CCC(O)CC4)S3)[nH]c12 (centres unmarked) [Example 311, N-(2-{5-[2-(4-hydroxypiperidino)-2-oxoethyl]-4,5-dihydro-1,3-thiazol-2-yl}-1H-indol-7-yl)-2-methoxy-N-methylbenzenesulfonamide]"
11,132 to 135 °C,"CN(c1cccc2cc(C3=NCC(CC(=O)N4CCC[C@H]4C(=O)O)S3)[nH]c12)S(=O)(=O)c1ccccc1C(F)(F)F (stereo partly drawn) [Example 316, 1-({2-[7-(methyl{[2-(trifluoromethyl)phenyl]sulfonyl}amino)-1H-indol-2-yl]-4,5-dihydro-1,3-thiazol-5-yl}acetyl)-L-proline]"
12,188 to 189 °C,"CN(c1cccc2cc(C3=NCC(CN4CCS(=O)(=O)CC4)S3)[nH]c12)S(=O)(=O)c1ccccn1 (centres unmarked) [Example 318, N-(2-{5-[(1,1-dioxidothiomorpholino)methyl]-4,5-dihydro-1,3-thiazol-2-yl}-1H-indol-7-yl)-N-methylpyridine-2-sulfonamide]"
